Our source for the pest or weed control and inhibition values is patent US5726162A (priority 1996, dated 1998).

The subject of the first assay is Magnaporthe grisea (Pyricularia oryzae). Put plainly: whole plant or invertebrate. In kind it is in vivo, Magnaporthe grisea (Pyricularia oryzae) on M201 rice plants. The conditions noted are these: Pyricularia oryzae, 144 h, read-out: % Control RB.
Turning to `CCC#CCN1N=C(c2ccc(C#N)cc2)CCC1=O` [Compound 64], the pest or weed control at 200 ppm is 0%. The same measure, in the same setting: for `CCC#CCN1N=C(c2ccc(Cl)cc2OC)CCC1=O` [Compound 99] the value was 0%. On the same count and under the same terms, the result for `C#CCn1nc(-c2ccc(Cl)cc2)ccc1=O` [Compound 118] reads 0%; that for `C#CC#CCN1N=C(c2ccc(Cl)cc2)CCC1=O` [Compound 93, 6-(4-chlorophenyl)-2-(2',4'-pentadiynyl)-4,5-dihydropyridazinone], 0%.

Regarding `CCC#CCn1nc(-c2ccc(Cl)cc2)c(F)cc1=O` [Compound 123], the pest or weed control at 200 ppm amounted to 99%. Still for that read-out and setting: for `CCCCCC#CCN1N=C(c2ccc(Cl)cc2)CCC1=O` [Compound 96] the value was 0%. With `CC#CCN1N=C(c2ccc3ccccc3c2)CCC1=O` [Compound 135], the pest or weed control at 200 ppm was found to be 0%.

A further assay deals with fungal mycelium. Put plainly: organism not typed. The conditions noted are these: read-out: % growth inhibition. In kind it is cell-based.
With `CCC#CCN1N=C(c2ccccc2F)CCC1=O` [Compound 209, 6-(2-fluorophenyl)-2-(2'-pentynyl)-4,5-dihydropyridazinone], the inhibition (usually the share of the control response that was lost under treatment) at 50 ppm amounted to 85.7%. With `CCC#CCN1N=C(c2ccccc2Cl)CCC1=O` [Compound 211, 6-(2-chlorophenyl)-2-(2'-pentynyl)-4,5-dihydropyridazinone], the inhibition at 50 ppm was determined as 30%. As for `CCC#CCN1N=C(c2ccc(C#N)cc2)CCC1=O` [Compound 64], the inhibition at 25 ppm was found to be 100%. Regarding `CCC#CCn1nc2c(cc1=O)-c1cccc3cccc-2c13` [Compound 232, 8-(2'-pentynyl)-acenaphtho[1,2c]pyridazin-9-one], the inhibition at 5 ppm came out at 45.5%. In the case of `CCC#CCN1N=C(c2cccc(C)c2)CCC1=O` [Compound 215, 6-(3-methylphenyl)-2-(2'-pentynyl)-4,5-dihydropyridazinone], the inhibition at 50 ppm stood at 100%.

For `CCC#CCN1N=C(c2ccc(F)c(F)c2)CCC1=O` [Compound 224, 6-(3,4-difluorophenyl)-2-(2'-pentynyl)-4,5-dihydropyridazinone], the inhibition at 50 ppm amounted to 100%. With `CCC#CCN1N=C(c2ccc(Cl)cc2OC)CCC1=O` [Compound 99], the inhibition at 1 ppm was 100%. Consider `C#CCn1nc(-c2ccc(Cl)cc2)ccc1=O` [Compound 118], for which the inhibition at 200 ppm turned out to be 100%. For the molecule `C#CC#CCN1N=C(c2ccc(Cl)cc2)CCC1=O` [Compound 93, 6-(4-chlorophenyl)-2-(2',4'-pentadiynyl)-4,5-dihydropyridazinone], the inhibition at 0.5 ppm worked out at 100%.

As to `CCC#CCn1nc(-c2ccc(Cl)cc2)c(F)cc1=O` [Compound 123], the inhibition at 100 ppm turned out to be 100%. For `CCCCCC#CCN1N=C(c2ccc(Cl)cc2)CCC1=O` [Compound 96], the inhibition at 10 ppm was determined as 94.5%. For the molecule `CCC#CCN1N=C(c2cccc(OC)c2)CCC1=O` [Compound 219, 6-(3-methoxyphenyl)-2-(2'-pentynyl)-4,5-dihydropyridazinone], the inhibition at 50 ppm came to 100%. For `CCC#CCN1N=C(C=Cc2ccc(Cl)cc2)CCC1=O` [Compound 205, 6-(4-chlorostyryl)-2-(2'-pentynyl)-4,5-dihydropyridazinone], the inhibition at 10 ppm was found to be 100%. `CCC#CCN1N=C(c2cccc(F)c2)CCC1=O` [Compound 214, 6-(3-fluorophenyl)-2-(2'-pentynyl)-4,5-dihydropyridazinone]: the inhibition at 50 ppm stood at 100%. For `CCC#CCN1N=C(c2ccc(Br)c(F)c2)CCC1=O` [Compound 97], the inhibition at 1 ppm was 100%. As to `Cc1ccc(Cn2nc(-c3ccc(Cl)cc3)ccc2=O)o1` [Compound 204, 6-(4-chlorophenyl)-2-(5-methyl-2-furanylmethylene)-pyridazinone], the inhibition at 10 ppm amounted to 100%. Turning to `CCC#CCN1N=C(c2ccc3c(c2)OCO3)CCC1=O` [Compound 207, 6-(3,4-methylenedioxyphenyl)-2-(2'-pentynyl)-4,5-dihydropyridazinone], the inhibition at 1 ppm is 100%. As to `CCC#CCN1N=C(c2csc3ccccc23)CCC1=O` [Compound 235, 6-(3-thianaphthene)-2-(2'-pentynyl)-4,5-dihydropyridazinone], the inhibition at 100 ppm came to 100%. Regarding `CCC#CCN1N=C(c2cc(F)cc(F)c2)CCC1=O` [Compound 98], the inhibition at 10 ppm was 40%. With `CC#CCN1N=C(c2ccc(Cl)cc2)COC1=O` [Compound 163], the inhibition at 10 ppm came to 12.7%. `NNC(=O)CN1N=C(c2ccc(Cl)cc2)CCC1=O` [Compound 233, 6-(4-chlorophenyl)-2-(acetyl hydrazide)4,5-dihydropyridazinone]: the inhibition at 100 ppm is 21%. Consider `CCC#CCn1nc(-c2csc3ccccc23)ccc1=O` [Compound 236, 6-(3-thianaphthene)-2-(2'-pentynyl)-pyridazinone], for which the inhibition at 100 ppm stood at 100%.

Regarding `O=C1CCC(c2ccc(Cl)cc2)=NN1Cc1nn(CC#CI)c(=O)o1` [Compound 241], the inhibition at 100 ppm is 100%.

In the case of `O=C1CCC(c2ccc(Cl)cc2)=NN1Cc1n[nH]c(=O)o1` [Compound 238], the inhibition at 100 ppm is 31.6%. For the molecule `CCC#CCN1N=C(c2cccc([N+](=O)[O-])c2)CCC1=O` [Compound 218, 6-(3-nitrophenyl)-2-(2'-pentynyl)-4,5-dihydropyridazinone], the inhibition at 50 ppm was 100%. Turning to `CCC#CCn1nc(CN2N=C(c3ccc(Cl)cc3)CCC2=O)oc1=O` [Compound 239], the inhibition at 100 ppm turned out to be 100%.

Turning to `CCC#CCN1N=C(c2ccc(C)c(OC)c2)CCC1=O` [Compound 220, 6-(3-methoxy-4-methylphenyl)-2-(2'-pentynyl)-4,5-dihydropyridazinone], the inhibition at 50 ppm is 100%.

In the case of `Cc1cc(C)n(C(=O)CN2N=C(c3ccc(Cl)cc3)CCC2=O)n1` [Compound 237, 6-(4-chlorophenyl)-2-(3,5-dimethyl-1-pyrazoylmethylene)-4,5-dihydropyridazinone], the inhibition at 100 ppm came to 58%. For the molecule `CCC#CCN1N=C(c2ccccc2)COC1=O` [Compound 164], the inhibition at 100 ppm is 14.2%. On to `CCC#CCN1N=C(c2ccc(C)c(F)c2)CCC1=O` [Compound 225, 6-(3-fluoro-4-methylphenyl)-2-(2'-pentynyl)-4,5-dihydropyridazinone], for which the inhibition at 50 ppm amounted to 100%. For the molecule `Cc1noc(C)c1CN1N=C(c2ccc(Cl)cc2)CCC1=O` [Compound 231, 6-(4-chlorophenyl)-2-(3,5-dimethyl-4-isoxolylmethyl)-4,5-dihydropyridazinone], the inhibition at 10 ppm was 36%. Consider `O=C(CN1N=C(c2ccc(Cl)cc2)CCC1=O)NN=Cc1cc(Cl)cc(Cl)c1O` [Compound 240, 6-(4-chlorophenyl)-2-[N-acetylhydrazide-(N'-3,5-dichloro-2-hydroxy-phenylhydrazone)]-4,5-dihydropyridazinone], for which the inhibition at 100 ppm was found to be 14%.

On to `CCC#CCN1N=C(c2cccc(C(F)(F)F)c2)CCC1=O` [Compound 213, 6-(3-trifluoromethylphenyl)-2-(2'-pentynyl)-4,5-dihydropyridazinone], for which the inhibition at 50 ppm was 100%. Consider `CCC#CCN1N=C(c2ccc(OC)c(C)c2)CCC1=O` [Compound 226], for which the inhibition at 50 ppm was 100%. In the case of `CCC#CCC1CC(c2ccc(Cl)cc2)=NN(C)C1=O` (stereo not shown) [Compound 203, 6-(4-chlorophenyl)-4-(2'-pentynyl)-2-methyl-4,5-dihydropyridazinone], the inhibition at 10 ppm stood at 100%. For the molecule `CCC#CCN1N=C(c2ccc(Cl)cc2)CSC1=O` [Compound 165, 5-(4-chlorophenyl)-3-(2-pentyn-1-yl)-3H,6H-1,3,4-thiadiazin-2-one], the inhibition at 100 ppm was determined as 100%. For the molecule `CCC#CCN1N=C2c3ccc(Cl)cc3CCC2CC1=O` (stereo not shown) [Compound 200, 4,4a,5,6-tetrahydro-8-chloro[h]-cinnolin-2-(2'-pentynyl)-3-one], the inhibition at 10 ppm is 100%.

On to `CCC#CCN1N=C(c2cccc(Cl)c2)CCC1=O` [Compound 216, 6-(3-chlorophenyl)-2-(2'-pentynyl)-4,5-dihydropyridazinone], for which the inhibition at 50 ppm turned out to be 100%.

`CCC#CCN1N=C(c2ccc(Cl)cc2)COC1=O` [Compound 162, 2-(4-chlorophenyl)-3-(2-pentyn-1-yl)-3H, 6H-1,3,4-oxadiazin-2-one]: the inhibition at 10 ppm was determined as 96.9%.

With `CCC#CCn1nc(-c2ccccc2)c(-c2ccccc2)c(C#N)c1=O` [Compound 228, 5,6-diphenyl-4-cyano-2-(2'-pentynyl)-pyridazinone], the inhibition at 10 ppm was 50%. In the case of `CCC#CCN1N=C(CCc2ccc(Cl)cc2)CCC1=O` [Compound 206, 6-(4-chlorophenethyl)-2-(2'-pentynyl)-4,5-dihydropyridazinone], the inhibition at 1 ppm came to 14.3%. On to `CCC#CCN1N=C(c2ccccc2C)CCC1=O` [Compound 210, 6-(2-methylphenyl)-2-(2'-pentynyl)-4,5-dihydropyridazinone], for which the inhibition at 50 ppm came to 35%.

Regarding `CCC#CCN1N=C(c2ccc3c(c2)CCc2ccccc2-3)CCC1=O` [Compound 227, 6-(9,10-dihydro-2-phenanthrene)-2-(2'-pentynyl)-4,5-dihydropyridazinone], the inhibition at 10 ppm was determined as 30%. As for `CCC#CCN1N=C(c2cccc(C#N)c2)CCC1=O` [Compound 217, 6-(3-cyanophenyl)-2-(2'-pentynyl)-4,5-dihydropyridazinone], the inhibition at 50 ppm turned out to be 100%.

Regarding `CCC#CCn1nc2c(cc1=O)CCc1cc(Cl)ccc1-2` [Compound 202, 5 6-dihydro-8-chlorobenzo[h]cinnolin-3-(2'-pentynyl)-one], the inhibition at 10 ppm worked out at 100%.

As to `CN1N=C(c2ccc(Cl)cc2)CCC1=O` [Compound 201, 6-(4-chlorophenyl)-2-methyl-4,5-dihydropyridazinone], the inhibition at 10 ppm is 10%. On to `CCC#CC(C)N1N=C(c2ccc(Cl)cc2)CCC1=O` (stereo not shown) [Compound 208, 6-(4-chlorophenyl)-2-(1-methyl-2-pentynyl)-4,5-dihydropyridazinone], for which the inhibition at 1 ppm came to 28.6%. With `CCC#CCn1nc(-c2cc(F)cc(F)c2)ccc1=O` [Compound 126], the inhibition at 10 ppm came to 100%. Regarding `CC(=O)CC(C)=NNC(=O)CN1N=C(c2ccc(Cl)cc2)CCC1=O` [Compound 234, 6-(4-chlorophenyl)-2-[N-acetylhydrazide-(N'-2,4-pentanedione-hydrazone)]-4,5-dihydropyridazinone], the inhibition at 100 ppm is 42%.

Turning to `CCC#CCN1N=C(c2cnc3ccccc3n2)CCC1=O` [Compound 230, 6-(2-quinoxaline)-2-(2'-pentynyl)-4,5-dihydropyridazinone], the inhibition at 10 ppm came out at 30%.

Turning to `CCC#CCN1N=C(c2ccccc2OC)CCC1=O` [Compound 212, 6-(2-methoxyphenyl)-2-(2'-pentynyl)-4,5-dihydropyridazinone], the inhibition at 50 ppm was found to be 35%.
